The values that follow come from patent publication US4005213A, “2,5-Substituted-1,3,4-thiadiazoles as fungicides” (Schering Aktiengesellschaft, priority 1968, dated 1977).

In test [1] the test system is Pythium ultimum. In words: Limit concentration of soil-fungicidal effectiveness, Pythium ultimum infested soil, peas (Example 1). The following applies: 20 to 23 days, 22°-25° C., germination at least 90% vs steamed soil; for minimal effective concentration: Globisporangium ultimum. Format: in vivo. On the procedure:
Limit concentrations of the soil-fungicidal effectiveness at homogeneous mixture of the products with the infested soil. Basic condition in the evaluation are a sound root formation without fungus necroses and germination of the seed of at least 90% compared with the result obtained in steamed soil. Per concentration there were seeded 25 grains of peas of the variety "Miracle of Kelvedon" (marrow pea) without a waiting period. the cultivation time in the tests was 20 to 23 days at a temperature of 22°-25° C. Four commercial products were included in the test series.
Pythium ultimum: Steamed compost soil was inoculated with mycelium of Pythium ultimum

In test [2] the test system is Aspergillus niger. Kind of test: Agar test, Aspergillus niger (Example 7). Format: cell-based. Conditions: 10 ppm in malt extract agar, 5 days at 22° C.; control 100. As for the experimental part: (§1) The fungicidal action of the agents according to the invention was tested in artificial nutrient media against plant-pathogenic fungi in Petri dishes (agar test). The procedure was to sterilize the medium consisting of 2% malt extract and 1.5% agar-agar powder. Before the solidification of the medium, the active substances were added to it, mixing thoroughly, so that the medium received 10 parts of active substance per million (ppm). After the solidification of the medium, the latter was inoculated with a platinum dropper which contained 100 spores each of the fungi to be tested, and after 5 days at 22° C., an evaluation was made by measuring the diameter of the colonies in mm.

The subject of test [3] is Stemphylium ilicis. Kind of test: Agar test, Stemphylium ilicis (Example 7). In kind it is cell-based. The following applies: 10 ppm in malt extract agar, 5 days at 22° C.; control 100. As for the experimental part:
as §1

Test [4] concerns Pythium ultimum. In words: Pea test in soil inoculated with Pythium ultimum (Example 2). In kind it is in vivo. Also on record: key to Root evaluation (1-4): 4 = white roots, no necroses … 1 = severe necroses, roots rotted. Conditions: for Root evaluation (1-4): 3 weeks. On the procedure: Steamed compost soil was inoculated with mycelium of Pythium ultimum. […] The following table lists the number of germinated sound peas, the weight of the fresh plant, and a root evaluation after a cultivation period of 3 weeks at 22°-25° C.
4 = white roots, without fungus necroses
3 = white roots, slight fungus necroses
2 = brown roots, more intense fungus necroses
1 = severe fungus necroses, roots rotted

Test [5] relates to Rhizoctonia solani. Kind of test: Pea test in soil inoculated with Rhizoctonia solani (Example 3). In kind it is in vivo. Conditions: for Root evaluation (1-4): 3 weeks; for Number of sound peas after 3 wks.: 25 grains seeded. The text has this: Steamed compost soil was inoculated with mycelium of Rhizoctonia solani. After homogeneous mixture of the products with the infested soil, the products were present in the form of 20% powder preparations, the seeding of 25 grains of marrow peas of the variety Miracle of Kelvedon per concentration was effected without waiting period in clay dishes holding 1 liter of soil. The table lists the number of germinated sound peas, the weight of the fresh plant, and a root evaluation after a cultivation period of 3 weeks at 22°-25° C.

The mark [6] stands for this setting: 10 mg active ingr. per liter of soil.
Setting [7] is: 20 mg active ingr. per liter of soil.
[8] abbreviates: 30 mg active ingr. per liter of soil.
Where [9] appears, read: 50 mg active ingr. per liter of soil.
Where [10] appears, read: 100 mg active ingr. per liter of soil.

As for `C[S+]([O-])c1nnc(CCl)s1` (stereo not shown) [Compound 2, 2-chloromethyl-5-methylsulfinyl-1,3,4-thiadiazole], in test [1], the minimal effective concentration (in general, the lowest level tested that produced the effect sought) is 30 µg/mL.

As to `CC(C)[S+]([O-])c1nnc(C(Cl)Cl)s1` (stereo not shown) [Compound 6, 2-dichloromethyl-5-isopropylsulfinyl-1,3,4-thiadiazole], in test [1], the minimal effective concentration is greater than 200 µg/mL.

Consider `CCCCC[S+]([O-])c1nnc(C(Cl)Cl)s1` (stereo not shown) [Compound 7, 2-dichloromethyl-5-amylsulfinyl 1,3,4-thiadiazole], for which the “diameter of the colonies, Aspergillus niger” value (from here on “diameter … Aspergillus niger”) in test [2] was 0 mm. The compound also had a minimal effective concentration in test [1] greater than 200 µg/mL. Further, in test [3], the “diameter of the colonies, Stemphylium ilicis” value (shortened to “diameter … Stemphylium ilicis”) is listed as 0 mm.

For the compound `CCC[S+]([O-])c1nnc(C(Cl)(Cl)Cl)s1` (stereo not shown) [Compound 10, 2-trichloromethyl-5-propylsulfinyl-1,3,4-thiadiazole], in test [2], the “diameter … Aspergillus niger” value was found to be 0 mm. Moreover, the minimal effective concentration in test [1] was 100 µg/mL. Also, the “diameter … Stemphylium ilicis” value in test [3] is listed as 0 mm.

As to `CC(C)[S+]([O-])c1nnc(C(Cl)(Cl)Cl)s1` (stereo not shown) [Compound 11, 2-trichloromethyl-5-isopropylsulfinyl-1,3,4-thiadiazole], the minimal effective concentration in test [1] is greater than 200 µg/mL.

For the compound `CCCC[S+]([O-])c1nnc(C(Cl)(Cl)Cl)s1` (stereo not shown) [Compound 12, 2-trichloromethyl-5-butylsulfinyl-1,3,4-thiadiazole], in test [2], the “diameter … Aspergillus niger” value stood at 0 mm. Further, the minimal effective concentration in test [1] stood at 200 µg/mL. Further, the “diameter … Stemphylium ilicis” value in test [3] is on record as 0 mm.

Take `CCCCCCC[S+]([O-])c1nnc(C(Cl)(Cl)Cl)s1` (stereo not shown) [Compound 13, 2-trichloromethyl-5-heptylsulfinyl-1,3,4-thiadiazole]: the “diameter … Aspergillus niger” value in test [2] is listed as 0 mm. In test [1], this compound had a minimal effective concentration greater than 200 µg/mL. The “diameter … Stemphylium ilicis” value in test [3] is 0 mm.

`CCCCCCCC[S+]([O-])c1nnc(C(Cl)(Cl)Cl)s1` (stereo not shown) [Compound 14, 2-trichloromethyl-5-octylsulfinyl-1,3,4-thiadiazole] returned a minimal effective concentration in test [1] greater than 200 µg/mL.

The compound `CS(=O)(=O)c1nnc(CCl)s1` [Compound 15, 2-chloromethyl-5-methylsulfonyl-1,3,4-thiadiazole] returned a minimal effective concentration in test [1] of 10 µg/mL. The “Root evaluation (1-4)” value in test [4] (setting [6]), in test [4] (setting [7]) and in test [4] (setting [8]) was 4 throughout.

In turn, `CC(C)S(=O)(=O)c1nnc(CCl)s1` [Compound 16, 2-chloromethyl-5-isopropylsulfonyl-1,3,4-thiadiazole] registered a minimal effective concentration in test [1] of 150 µg/mL.

In the case of `CC(C)S(=O)(=O)c1nnc(C(Cl)Cl)s1` [Compound 20, 2-dochloromethyl-5-isopropylsulfonyl-1,3,4-thiadiazole], in test [1], the minimal effective concentration was found to be 200 µg/mL.

As for `CCS(=O)(=O)c1nnc(C(Cl)(Cl)Cl)s1` [Compound 22, 2-trichloromethyl-5-ethylsulfonyl-1,3,4-thiadiazole], in test [2], the “diameter … Aspergillus niger” value came out at 0 mm. Also, the minimal effective concentration in test [1] was determined as 50 µg/mL. Moreover, the “diameter … Stemphylium ilicis” value in test [3] came to 0 mm.

`CC(C)S(=O)(=O)c1nnc(C(Cl)(Cl)Cl)s1` [Compound 24, 2-trichloromethyl-5-isopropylsulfonyl-1,3,4-thiadiazole]: the “diameter … Aspergillus niger” value in test [2] is 0 mm. For the same compound, the minimal effective concentration in test [1] was 150 µg/mL. For the same compound, the “diameter … Stemphylium ilicis” value in test [3] was found to be 0 mm.

In the case of `CCCCS(=O)(=O)c1nnc(C(Cl)(Cl)Cl)s1` [Compound 25, 2-trichloromethyl-5-butylsulfonyl-1,3,4-thiadiazole], in test [2], the “diameter … Aspergillus niger” value is listed as 0 mm. Moreover, in test [1], the minimal effective concentration was greater than 200 µg/mL. The “diameter … Stemphylium ilicis” value in test [3] is reported as 0 mm.

Take `CCCCCS(=O)(=O)c1nnc(C(Cl)(Cl)Cl)s1` [Compound 26, 2-trichloromethyl-5-amylsulfonyl-1,3,4-thiadiazole]: in test [2], the “diameter … Aspergillus niger” value is given as 0 mm. In test [1], this compound came in with a minimal effective concentration greater than 200 µg/mL. Also, in test [3], the “diameter … Stemphylium ilicis” value is given as 0 mm.

Take `CS(=O)(=O)c1nnc(CBr)s1` [Compound 30, 2-bromomethyl-5-methylsulfonyl-1,3,4-thiadiazole]: the minimal effective concentration in test [1] turned out to be 20 µg/mL. For the same compound, the “Root evaluation (1-4)” value in test [4] (setting [6]) was 1; in test [4] (setting [7]) it was 4; in test [4] (setting [8]), 4. The “Number of sound peas after 3 wks.” value in test [4] (10 mg active ingr. per liter of soil, 25 grains seeded) was 21.

Turning to `CCS(=O)(=O)c1nnc(CBr)s1` [Compound 31, 2-bromomethyl-5-ethylsulfonyl-1,3,4-thiadiazole], the minimal effective concentration in test [1] is 50 µg/mL.

Regarding `C[S+]([O-])c1nnc(CF)s1` (stereo not shown) [Compound 33, 2-fluoromethyl-5-methylsulfinyl-1,3,4-thiadiazole], the minimal effective concentration in test [1] turned out to be 50 µg/mL.

In test [1], `CS(=O)(=O)c1nnc(CF)s1` [Compound 34, 2-fluoromethyl-5-methylsulfonyl-1,3,4-thiadiazole] yielded a minimal effective concentration of 50 µg/mL.

The compound `CC(C)C[S+]([O-])c1nnc(C(F)(F)F)s1` (stereo not shown) [Compound 37, 2-trifluoromethyl-5-isobutylsulfinyl-1,3,4-thiadiazole] displayed a minimal effective concentration in test [1] of 30 µg/mL.

In test [1], `CCCCC[S+]([O-])c1nnc(C(F)(F)F)s1` (stereo not shown) [Compound 38, 2-trifluoromethyl-5-pentylsulfinyl-1,3,4-thiadiazole] had a minimal effective concentration of 100 µg/mL.

`CCCCCC[S+]([O-])c1nnc(C(F)(F)F)s1` (stereo not shown) [Compound 39, 2-trifluoromethyl-5-hexylsulfinyl-1,3,4-thiadiazole] came in with a minimal effective concentration in test [1] of 100 µg/mL.

Turning to `CC(C)S(=O)(=O)c1nnc(C(F)(F)F)s1` [Compound 41, 2-trifluoromethyl-5-isopropylsulfonyl-1,3,4-thiadiazole], the minimal effective concentration in test [1] came out at 10 µg/mL.

For the compound `CC(C)CS(=O)(=O)c1nnc(C(F)(F)F)s1` [Compound 42, 2-trifluoromethyl-5-isobutylsulfonyl-1,3,4-thiadiazole], the minimal effective concentration in test [1] was 20 µg/mL.

`CCCCCCS(=O)(=O)c1nnc(C(F)(F)F)s1` [Compound 43, 2-trifluoromethyl-5-hexylsulfonyl-1,3,4-thiadiazole] had a minimal effective concentration in test [1] greater than 100 µg/mL.

Consider `CCCCCCCS(=O)(=O)c1nnc(C(F)(F)F)s1` [Compound 44, 2-trifluoromethyl-5-heptylsulfonyl-1,3,4-thiadiazole], for which, in test [1], the minimal effective concentration was greater than 100 µg/mL.

Compound `CS(=O)(=O)c1nnc(C(F)(F)C(F)(F)F)s1` [Compound 45, 2-pentafluoroethyl-5-methylsulfonyl-1,3,4-thiadiazole] had a minimal effective concentration in test [1] of 100 µg/mL.

Take `CC(Cl)(Cl)c1nnc(S(C)(=O)=O)s1` [Compound 47, 2-(1,1-dichloroethyl)-5-methylsulfonyl-1,3,4-thiadiazole]: the minimal effective concentration in test [1] was 80 µg/mL.

Compound `CCC(Cl)c1nnc([S+](C)[O-])s1` (stereo not shown) [Compound 48, 2-(1-chloropropyl)-5-methylsulfinyl-1,3,4-thiadiazole] registered a minimal effective concentration in test [1] greater than 100 µg/mL.

Compound `CCC(Cl)c1nnc(S(C)(=O)=O)s1` (stereo not shown) [Compound 49, 2-(1-chloropropyl)-5-methylsulfonyl-1,3,4-thiadiazole] gave a minimal effective concentration in test [1] of 100 µg/mL.

Regarding `CC(Br)c1nnc(S(C)(=O)=O)s1` (stereo not shown) [Compound 50, 2-(1-bromethyl)-5-methylsulfonyl-1,3,4-thiadiazole], the minimal effective concentration in test [1] amounted to 40 µg/mL.

In turn, `CC(C)C(Br)c1nnc(S(C)(=O)=O)s1` (stereo not shown) [Compound 51, 2-(1-bromisobutyl)-5-methylsulfonyl-1,3,4-thiadiazole] gave a minimal effective concentration in test [1] greater than 100 µg/mL.

In the case of `CCCCC(Br)c1nnc(S(C)(=O)=O)s1` (stereo not shown) [Compound 52, 2-(1-bromopentyl)-5-methylsulfonyl-1,3,4-thiadiazole], the “Limit concentration of fungicidal effectiveness, Pythium ultimum” value in test [1] is given as “no effect”.

Consider `CC(C)CC(Br)c1nnc(S(C)(=O)=O)s1` (stereo not shown) [Compound 53, 2-(1-bromisopentyl)-5-methylsulfonyl-1,3,4-thiadiazole], for which the “Limit concentration of fungicidal effectiveness, Pythium ultimum” value in test [1] is reported as “no effect”.

With `O=[N+]([O-])c1c(Cl)c(Cl)c(Cl)c(Cl)c1Cl` [Pentachloronitrobenzene, reference compound], in test [5] (setting [9]), the “Root evaluation (1-4)” value was 1 and the “Number of sound peas after 3 wks.” value is on record as 4. In addition, in test [5] (setting [10]), the “Root evaluation (1-4)” value is listed as 4 and the “Number of sound peas after 3 wks.” value is given as 25.
